Test results from patent EP0389368B1, “New derivatives of 6-(1-piperazinyl) 2,5-pyridine diamine N,N,N',N'-substituted, procedure for their production and intermediates, their use as medicines and pharmaceutical preparations containing them” (priority 1989, dated 1990).

Assays:
[1] = system: péroxydation lipidique; experiment: MDA formation test, non-enzymatic lipid peroxidation triggered by ferrous sulfate in rat brain homogenates; format: biochemical, rat S.D; settings: rat brain homogenate, FeSO4, 60 min 37°C
Text: (§1) L'activité antioxydante est recherchée, in vitro, par le test de formation de la malonyldialdéhyde (MDA) qui mesure la péroxydation lipidique déclenchée : soit a) de façon non enzymatique par le sulfate ferreux, dans • 1) des homogénats de cerveau ou • 2) des microsomes hépatiques de rat soit b) de façon enzymatique par NADPH et le tétrachlorure de carbone, dans des microsomes hépatiques de rat. 1.1 : La formation de MDA est mesurée sur des homogénats au 1/10^e (V/V) de cerveaux de rat S.D (200 g) préparés dans un tampon de Krebs pH 7,4 selon les conditions décrites dans J. Biol. Chem. 262 (1987) 10438-10440. On incube 1 ml d'homogénat pendant 60 mn à 37°C en présence de 25 microlitres d'éthanol contenant ou non le produit à tester, après addition de 25 microlitres de solution de sulfate ferreux préparée extemporanément dans de l'eau dégazée à l'argon (200 micromoles final). On prélève 0,25 ml de mélange incubé et ajoute 1,5 ml d'acide phosphorique à 1 %, 0,25 ml de solution 200 micromoles de déféroxamine (Desféral^R Ciba Geigy) dans l'eau, 10 microlitres de tert-butylhydroxytoluène (BHT) à 8,7 mg/ml dans l'éthanol et 0,5 ml d'acide thiobarbiturique (TBA) à 0,6 % dans l'eau. On chauffe le mélange à 100°C pendant 45 mn, refroidit, ajoute 4 ml de n-butanol, centrifuge pendant 15 mn à 4000 t/mn puis lit la DO à 535 nm de la fraction surnageante. On incube dans les mêmes conditions les blancs de réaction en absence de Fe++. On calcule le pourcentage d'inhibition : pourcentage d'inhibition =(DO en présence de produit)/(DO en absence de produit) [formula]

[2] = system: péroxydation lipidique; experiment: MDA formation test, non-enzymatic lipid peroxidation triggered by ferrous sulfate/ascorbate in rat liver microsomes; format: biochemical, rat S.D; settings: FeSO4/ascorbate, 15 min 37°C
Text: as §1, with “[formula] Résultats :” for “[formula]”
1.2 : La formation de MDA est mesurée sur des microsomes hépatiques de rat S.D (200 g) préparés à partir de la fraction sédimentée à 100.000 g d'un homogénat de foie dans un tampon sucrose dont on utilise la fraction restant insoluble à 100.000 g dans un tampon de pyrophosphate de sodium 100 mM pH 7,4 et que l'on homogénéise dans un tampon phosphate de sodium 100 mM pH 7,4 à 20 % de glycérol, puis que l'on conserve à -80°C. On incube les microsomes pendant 15 mn à 37°C dans 1 ml contenant du tampon Tris-HCl 35 mM, KCl 0,1 M pH 7,4, 1 mg de protéine microsomale, 5 microlitres d'éthanol renfermant ou non le produit à tester, 250 microlitres de solution d'ascorbate dans le tampon Tris (0,5 mM final), après l'addition de 250 microlitres de sulfate ferreux préparée extemporanément dans le tampon Tris (6 micromoles final). On arrête la réaction par addition de 2 ml d'une solution d'acide trichloracétique 1 M dans l'acide chlorhydrique 0,25 M contenant 0,4 % d'acide thiobarbiturique. On chauffe le mélange à 85°C pendant 25 mn, refroidit, centrifuge pendant 15 mn à 3500 t/mn puis lit la DO à 535 nm de la fraction surnageante. On effectue en même temps les blancs de réaction en absence de Fe++. On calcule le pourcentage d'inhibition comme précédemment.

[3] = system: péroxydation lipidique; experiment: MDA formation test, enzymatic lipid peroxidation triggered by NADPH and carbon tetrachloride in liver microsomes of phenobarbital-pretreated rats; format: biochemical; settings: rat liver microsomes (phenobarbital-pretreated), NADPH + CCl4, 15 min 37°C
Text: as §1, with “[formula] Résultats :” for “[formula]”
2 : La formation de MDA est mesurée sur des microsomes hépatiques de rats prétraités au phénobarbital (80 mg/kg par 3 injections i.p), préparés comme décrit précédemment. On incube les microsomes pendant 15 mn à 37°C dans 1 ml contenant du tampon phosphate 0,1 M pH 7,4, 1 mg de protéine microsomale, 5 microlitres d'éthanol renfermant ou non le produit à tester, 5 microlitres de tétrachlorure de carbone (5,5 mM final) après l'addition de 50 microlitres de solution de NADPH dans le tampon phosphate (1 mM final). On arrête la réaction puis effectue le dosage selon les conditions décrites précédemment.

[4] = system: oedème plantaire provoqué par l'acide arachidonique; experiment: Arachidonic acid-induced paw oedema test (anti-oedema activity); format: in vivo, rats mâles EOPS de souche Sprague Dawley; settings: rat; for Variation de volume de la patte 1 heure après AA: ** p < 0,01 (Dunnett)
Text: L'activité anti-inflammatoire est évaluée in vivo par mesure de l'activité anti-oedémateuse à l'aide du test de l'oedème plantaire provoqué par l'acide arachidonique décrit par M.J. Di Martino et al. (Agents and Actions 1987 21 3/4 303).
Les animaux d'expérimentation sont des rats mâles EOPS de souche Sprague Dawley pesant 150-170 g (Iffa Credo).
Ce test est pratiqué sur des groupes de 8 rats mâles pesant 130 à 150 g à jeun depuis 16 heures. L'acide arachidonique est injecté sous l'aponévrose plantaire d'une patte postérieure à la dose de 0,2 mg sous un volume de 0,1 ml. Le volume de la patte est mesuré à l'aide d'un pléthysmomètre à eau, avant et 1 heure après l'injection de l'acide arachidonique. La différence entre ces deux volumes représente le degré d'inflammation. Les animaux sont traités par les produits à étudier ou le véhicule seul en même temps que l'injection de l'acide arachidonique.
Les produits étudiés ont été administrés par voie orale sous un volume de 4 ml/kg après avoir été mis en suspension dans la méthylcellulose à 0,5%. Toutes les expériences ont été réalisées avec comme produit de référence la dexaméthasone à la dose de 0,5 mg/kg par voie orale.
Les résultats sont exprimés en variation de volume de la patte 1 heure après l'injection d'acide arachidonique (AA), en absence ou en présence du produit à tester administré à différentes doses.
L'interprétation statistique des résultats a été effectuée selon le test de Dunnett (* p < 0,05 - ** p < 0,01) ou selon le test de Mann Whitney (° p < 0,05 - °° p < 0,01).
Pour chaque dose administrée par voie orale, on calcule le pourcentage d'inhibition de l'oedème par le produit testé, par rapport au témoin.

| SMILES | pourcentage d'inhibition ([1]; 1.10^-4M, 100 µM) | pourcentage d'inhibition ([1]; 1.10^-5M, 10 µM) | pourcentage d'inhibition ([1]; 5.10^-4M, 500 µM) | pourcentage d'inhibition ([2]; 1.10^-5M, 10 µM) | pourcentage d'inhibition ([2]; 1.10^-6M, 1 µM) | pourcentage d'inhibition ([2]; 5.10^-6M, 5 µM) | pourcentage d'inhibition ([3]; 1.10^-5M, 10 µM) [pourcentage] | pourcentage d'inhibition ([3]; 1.10^-6M, 1 µM) | pourcentage d'inhibition ([3]; 5.10^-6M, 5 µM) | Variation de volume de la patte 1 heure après AA ([4]; dose 20 mg/kg oral) | Variation de volume de la patte 1 heure après AA ([4]; dose 0,5 mg/kg oral) | Variation de volume de la patte 1 heure après AA ([4]; dose 1 mg/kg oral) | activité anti-inflammatoire ([4]; result in words, from the dose of 0,5 mg/kg oral) |
| --- | --- | --- | --- | --- | --- | --- | --- | --- | --- | --- | --- | --- | --- |
| CCN(CC)c1ccc(N(CC)CC)c(N2CCNCC2)n1 [Produit de l'ex. 1, N,N,N′,N′-tétraéthyl 6-(1-pipérazinyl) 2,5-pyridine diamine] | 67,4 ± 8,6 pourcentage | 60,3 ± 9,1 pourcentage | 74,2 ± 3,8 pourcentage | 99,4 pourcentage | 44,0 pourcentage | 99,4 pourcentage | 96 ± 1 | 43 ± 3 pourcentage | 93 ± 0,2 pourcentage | 0,33 ± 0,06** cm3 |  |  |  |
| CCN(CC)c1ccc(N(CC)CC)c(N2CCN(CC(=O)[C@H]3[C@H](C)C[C@H]4[C@@H]5CCC6=CC(=O)C=C[C@]6(C)C5=CC[C@@]43C)CC2)n1 [Produit de l'ex. 2, 21-[4-[3,6-bis(diéthylamino) 2-pyridyl] 1-pipérazinyl] 16alpha-méthyl pregna-1,4,9(11)-triène-3,20-dione] | 55,6 ± 1,3 pourcentage | 63,8 ± 4,3 pourcentage | 60,4 ± 4,4 pourcentage | 99,8 pourcentage | 42,0 ± 5 pourcentage | 99,5 pourcentage | 91 ± 1 | 49 ± 1,5 pourcentage | 88 ± 1 pourcentage |  | 0,32 ± 0,04** cm3 | 0,32 ± 0,01** cm3 | forte activité |
